Patent US6759238B1, “Multidrug resistance associated proteins and uses thereof” (priority 1999, dated 2004)
“And” between values parts separate entries of the source, which are not always exact repeats. Equal values may be shown once. Read-outs that look alike come from different tables or passages of the source.

Columns and labels:
[1] = Cytotoxicity assay (growth inhibition, Coulter counter); conditions: human, CEM-SS cells (wild type, parental)
Description: (§1) […] Each result is the mean of one representative experiment performed in duplicate. The cultures with the purine nucleosides adenosine, 2′-deoxyadenosine, and arabinosyladenine contained 5 μM deoxycoformycin to inhibit adenosine deaminase activity.
(§2) All assays were performed in 24-well tissue culture plates (Costar, Cambridge, Ma.). […] At the end of the incubation, the cell concentrations, sizes, and volumes were counted in a Coulter counter (Coulter Electronics, Hialeah. Fla.).

[2] = as above; conditions: human
Description: (§3) Selection for PMEA resistance was carried out by exposing CEM-SS cells in culture to increasing concentrations of PMEA, over several months.
(§4) The IC50 values were obtained after 2 days of culture. Each result is the mean of one representative experiment performed in duplicate. The cultures with the purine nucleosides adenosine, 2′-deoxyadenosine, and arabinosyladenine contained 5 μM deoxycoformycin to inhibit adenosine deaminase activity.
as §2

[3] = tested on: HIV-1IIIB in CEM-r1 cells; assay: Antiviral activity (ED50, RT / p24 assay) in resistant cells; assay type: cell-based; conditions: for EC50: Human immunodeficiency virus 1, CEM-r1 cells, HIV
Description: (§5) As used herein, “pM” means picomolar, “nM” means nanmolar, “μM, means micromolar, “mM” means millimolar, “ul” or “μl” mean microliter, “ml” means milliliter, “l” means liter. […] “IC50” means the inhibitory concentration at which growth is arrested by 50 percent.
(§6) The two cell lines, CEM-SS and CEM-r1 were infected with HIV-IMB at a multiplicity of 0.01, and cultured for 6 days in the presence and absence of different concentrations of test drugs. The extent of virus production was monitored by in in-house p24 antigen capture assay (50).
The antiviral effects of the different drugs were monitored by RT assays according to previously described procedures (20, 21). CEM-SS or CEM-r1 cells were infected with an inoculum of HIV-1IIIB standardized to contain 1 RT cpm/cell, and the virus-infected cells were seeded at a concentration of 0.2×10^6 cells/ml in medium containing varying concentrations of PMEA (or other test compounds). After 5 days of incubation, the RT activity of the culture supernates was determined by previously described procedures (22). […] The reaction was initiated by addition of 10 ul of virus-containing tissue culture supernatant. After 1 hr of incubation, 10 ul of the reaction mixture were spotted on a Whatman DE-81 tilter paper, air dried, and washed four times with 2×standard saline citrate (0.3 M NaCl, 0.03 M sodium citrate). The filter papers were dried, transferred to a plastic bag containing scintillation cocktail, sealed, and counted in an LKB Betaplate reader. The drug concentrations yielding half-maximal RT activity (ED50) was calculated as a measure of the antiviral efficacy of the test compounds, using the nonlinear curve-fitting software Enzfitter (Elsevier Biosoft, Cambridge, UK).

[4] = tested on: HIV-1IIIB in CEM-SS cells; assay: Antiviral activity (ED50, RT / p24 assay) in wild type cells; assay type: cell-based; conditions: Human immunodeficiency virus 1, WT (CEM-SS) cells
Description: as §5, §6
The antiviral effects of the different drugs were monitored by RT assays according to previously described procedures (20, 21). […] After 5 days of incubation, the RT activity of the culture supernates was determined by previously described procedures (22). […] The filter papers were dried, transferred to a plastic bag containing scintillation cocktail, sealed, and counted in an LKB Betaplate reader. The drug concentrations yielding half-maximal RT activity (ED50) was calculated as a measure of the antiviral efficacy of the test compounds, using the nonlinear curve-fitting software Enzfitter (Elsevier Biosoft, Cambridge, UK).

[5] = Efflux of [3H]-AZT and its metabolites; assay type: in vitro ADME, human; conditions: human, t½ for intracellular AZT, CEM-SS
Description: (§7) Cells were incubated for 60 minutes with [^3H]-AZT (10 μM) after which they were washed free of radioactivity, resuspended in drug-free medium and the intracellular and the extracellular concentration of [^3H]-AZT were measured. […] At least 80% of the AZTMP present intracellularly in CEM-r1 cells was excreted into the medium in 10 minutes (FIG. 6A).
(§8) Referring to Table 6 in greater detail, efflux kinetics were studied. Transport analysis of PMEA was conducted as previously described^48. […] The cells were then washed free of radioactivity and then incubated in drug-free medium in the presence of sodium azide and 2-deoxy-D-glucose. At various time periods, the amount of intracellular AZTMP was measured. As reported in Table 6, depletion of ATP led to an inhibition of AZTMP efflux (i.e. a significant accumulation of AZTMP in the CEM-r1 cells but not in the CEM-SS cells).
(§9) The suspension was centrifuged at 3,300 rpm for 7 minutes. All but 1 ml of the supernatant medium containing the free drug was aspirated. […] The cell pellet was then washed with ice-cold medium and resuspended at the same concentration in drug-free medium and maintained at 37° C. […] An aliquot of the top layer (cell free media) was analyzed for the quantitation of AZT and its metabolites.

CEM-SS cells [6] = assay: Phosphorylation of AZT; assay type: in vitro ADME, human; conditions: 10 μM AZT
Description: (§10) The appearance of the phosphorylated metabolites into the medium was also determined in both the cell lines. AZTDP and AZTTP were not detected in the medium of either CEM-SS or CEM-r1 cells. However, the amount of AZTMP accumulated in the media was approximately 3-fold higher in CEM-r1 cells than in CEM-SS cells.
(§11) The cartridges were conditioned with 10% MeOH Ammonium Phosphate Buffer (5 mM, pH 4.0). The sample was loaded onto the column. […] AZTDP and AZTTP were eluted with 10% MeOH Ammonium Phosphate Buffer (700 mm, pH 4.6).

CEM-r1 cells [7] = assay: Phosphorylation of AZT; assay type: in vitro ADME, human; conditions: CEM-r1, 10 μM AZT
Description: as §10, §11

[8] = Efflux of [3H]-AZT and its metabolites; assay type: in vitro ADME, human; conditions: human, t½ for intracellular AZT, CEM-r1
Description: as §7, §8, §9

CEM-SS cells [9] = assay: Cytotoxicity assay (growth inhibition, Coulter counter)
Description: as §1, §2

CEM-r1 cells [10] = assay: as above
Description: as §3, §4, §2

CEM-SS and CEM-r1 cells = assay: Uptake of [3H]-AZT; assay type: in vitro ADME, human; conditions: 10 μM and 100 μM, up to 120 seconds
Description: At various time periods (0, 10, 20, 30, 40, 60, 90, 120 seconds) from the start of the incubation, aliquots of the cell suspension were removed and centrifuged through Nyosil 50 (W. F. Nye, Inc.,New Bedford, Ma.) at 14,000×g for 60 seconds at 4° C.

CEM-r1 cells [11] = assay: Efflux of PMEA from bispom-PMEA loaded cells; assay type: in vitro ADME, human
Description: (§12) To examine whether the resistant cells could be altered in their capacity to retain the phosphonate analog, the clearance of [^3H]PMEA and its metabolites from CEM-SS and CME-r1 cells was determined. […] Aliquots of cells and medium sampled at different intervals over a period of 2 hr were analyzed by HPLC, and the results are shown in FIG. 4. […] Some of this clearance was probably due to the anabolism of PMEA, because the PMEAp- and PMEApp-associated radioactivity continued to accumulate within the cells, but the majority of the radioactivity was excreted into the medium as PMEA. In contrast to the results with parental cells, loss of intracellular PMEA-associated radioactivity in the resistant CEM-r1 cells was extremely rapid and the majority of the radioactivity within the cells was excreted into the medium within 20-30 minutes of incubation (FIG. 4).
(§13) Both CEM-SS and CME-r1 cells were incubated for 3 minutes with increasing concentrations (range 0.07 mM to 8.80 mM) of the prodrug for the selecting agent, Bis(POM)PMEA. After incubation, the cells were pelleted and reconstituted in drug-free medium, and the amount of PMEA present in the medium and intracellularly was measured 15 minutes after resuspension. The amount of PMEA effluxing out into the medium at 15 minutes increased initially with increasing concentration (FIG. 7A).
CEM-r1 cells were incubated with 0.07-8.8 mM Bis(POM)PMEA for 3 minutes. The cells were pelleted and reconstituted in either drug-free medium or in medium containing 0.5 mM PMEA, and the amount of PMEA present in the medium and intracellularly was measured 15 minutes after resuspension.
as §8
(§14) At the indicated times, extracts were prepared from the cells and the medium, and the prodrug and its various nucleoside/nucleotide metabolites were analyzed by HPLC as described previously (24).

CEM-r1 cells [12] = assay: Uptake and metabolism of [3H]PMEA; conditions: for Intracellular levels: CEM-r1, 10 μM [3H]PMEA
Description: (§16) The mutant and parental cells were incubated with 10 μM [^3H]PMEA and at various times were analyzed for intracellular levels of PMEA and its metabolites by Partisil SAX HPLC. […] The metabolism of [^3H]PMEA was also examined in both cell lines after longer periods (i.e., 8 and 12 hr) of incubation with 10 μM [^3H]PMEA.
(§17) Exponentially growing cultures were incubated with 10 μM [^3H] PMEA for 8 or 12 hr and the cell extracts were analyzed for PMEA and its metabolites by ion exchange HPLC, as described.
(§18) Exponentially growing CEM-SS and CEM-r1 cells were harvested by centrifugation, resuspended at 1×10^6 cells/ml in fresh medium in the presence of [^3H]PMEA or [^3H]bispom-PMEA, and incubated at 37° C. At the indicated time points, aliquots of the cells were removed and centrifuged through Nyosil 50 (W. F. Nye, Inc., New Bedford, Ma.) at 13,000×g for 60 seconds at 4° C. When bispom-PMEA was investigated, an aliquot of the cell-free medium was also removed and analyzed by HPLC for determination of extracellular metabolites. The cell pellet was extracted with 70% ice-cold methanol and the aqueous phase was collected and analyzed for intracellular tritiated PMEA or tritiated bispom-PMEA and their metabolites by using HPLC analysis, essentially as described previously (23, 24).

CEM-SS cells [13] = assay: Uptake and metabolism of [3H]PMEA; conditions: 10 μM [3H]PMEA
Description: as §16, §17, §18

CEM-SS cells [14] = assay: Uptake and metabolism of [3H]bispom-PMEA; conditions: CEM-SS, 1 μM [3H]bispom-PMEA, 15 minutes
Description: (§15) Therefore, the metabolism of [^3H]bispom-PMEA (15), a lipophilic prodrug of PMEA, was analyzed in the two cell lines in order to further examine the mechanism of resistance in the mutant cell line.

CEM-r1 cells [15] = assay: Uptake and metabolism of [3H]bispom-PMEA
Description: as §15

CaCo-2 cells = assay: PMEA transport in transwell culture; assay type: in vitro ADME; conditions: CaCo-2
Description: A transwell culture which is permissive for cellular polarization may be used to measure the compartment to compartment flux of putative substrates. […] In addition, it is possible that expression of MPR4 depending if it is basal or apical (and this may vary by organ cultured) may determine if PMEA or PMEA-like drugs are absorbed.

CEM-SS cells [16] = assay: Efflux of PMEA from bispom-PMEA loaded cells; assay type: in vitro ADME, human; conditions: for Efflux kinetics, PMEA: CEMss
Description: as §12, §13, §8, §14

[17] = CEM-r1, 1 μM [3H]bispom-PMEA, 15 minutes

## Nc1ccn([C@@H]2CS[C@H](CO)O2)c(=O)n1 [3TC, lamivudine]
[1]
  IC50 at 48 h: 1000 µM
[2]
  IC50 at 48 h: 5000 µM
[3]
  EC50: 1.1 µM
[4]
  EC50: 0.21 µM

## Cc1cn([C@H]2C[C@H](N=[N+]=[N-])[C@@H](CO)O2)c(=O)[nH]c1=O [AZT, zidovudine]
[5]
  half-life at 10 μM: 8.1 min
CEM-SS cells [6]; 4 hours
  Intracellular Concentration: 10 µM
CEM-SS cells [6]; 8 hours
  Intracellular Concentration: 8 µM
CEM-SS cells [6]; 24 hours
  Intracellular Concentration: 10 µM
CEM-r1 cells [7]; 8 hours
  Intracellular Concentration: 5.2 µM
CEM-r1 cells [7]; 24 hours
  Intracellular Concentration: 4.3 µM
[8]
  half-life at 10 μM: 6.5 min
[1]
  IC50 at 48 h: 500 µM
CEM-SS cells [9]; Homo sapiens, CEM-SS, 24 h, read-out: Drug sensitivity (concentration to inhibit 50% growth)
  IC50: 500 µM
[2]
  IC50 at 48 h: 3000 µM
CEM-r1 cells [10]; Homo sapiens, 24 h, read-out: Drug sensitivity (concentration to inhibit 50% growth)
  IC50: 3000 µM
CEM-SS and CEM-r1 cells
  Cellular uptake in the two cell lines: similar
[3]
  EC50: 0.14 µM
[4]
  EC50: 0.006 µM

## Nc1ncnc2c1ncn2CCOCP(=O)(O)O [PMEA, 9-(2phosphonylmethoxyethyl)adenine]
CEM-r1 cells [11]
  Increase in rate of efflux, CEM-r1 vs CEM-SS: ~7 fold
CEM-r1 cells [11]; CEM-r1, medium with 0.5 mM PMEA vs drug-free
  Amount of PMEA effluxed in the presence or absence of PMEA in the medium: no significant difference
CEM-r1 cells [11]; CEM-r1 cells, loaded with 2 μM [3H]bispom-PMEA, drug-free medium
  Time within which the majority of the radioactivity was excreted into the medium: 20 to 30 min
CEM-r1 cells [11]; CEMr-1, Azide + Deoxyglucose
  Efflux kinetics, PMEA: >26 min
CEM-r1 cells [11]; CEMr-1, no treatment
  Efflux kinetics, PMEA: 4.4 min
CEM-r1 cells [11]; resistant CEM-r1 cells
  Rate of efflux: 2.55 pmol/min/10^6
CEM-SS cells [9]; CEM-SS, 2 days of culture (Table 3)
  IC50: 34 µM
CEM-SS cells [9]; read-out: Cytotoxicity IC50, WT (CEM-SS) cells (Table 5)
  IC50: 80 µM
CEM-SS cells [9]; read-out: Drug sensitivity (concentration to inhibit 50% growth), CEMss, 24 h exposure (Table 6)
  IC50: 80 µM
CEM-r1 cells [10]; CEM-r1, 2 days of culture (Table 3)
  IC50: 6200 µM
CEM-r1 cells [10]; CEM-r1 vs CEM-SS (Table 3)
  Relative Resistance: 182
CEM-r1 cells [10]; CEM-r1 vs parental CEM-SS
  Resistance of CEM-r1 cells to the cytotoxic effects, compared with the parental cells: ~250 fold and > 250 fold
CEM-r1 cells [10]; ratio of IC50 of resistant line to IC50 of wild type
  Fold Resistance (cytotoxicity): 250
CEM-r1 cells [10]; read-out: Cytotoxicity IC50, CEM-r1 cells (Table 5)
  IC50: 20000 µM
CEM-r1 cells [12]; 8 hr
  Intracellular levels: 1.0 µM
CEM-r1 cells [12]; 12 hr
  Intracellular levels: 1 µM and 0.99 µM
CEM-r1 cells [12]; CEM-r1 vs CEM-SS, 8 hr
  Intracellular level in CEM-r1 as percent of the wildtype level: (56%)
CEM-SS cells [13]; 8 hr
  Intracellular levels: 1.7 µM
CEM-SS cells [13]; 12 hr
  Intracellular levels: 2.5 µM
[3]; CEM-r1 vs WT
  Fold Resistance (antiviral activity): >150
CEM/VLB100
  Cross-resistance of MDR mutant CEM/VLB100: did not exhibit any cross-resistance
CEM-SS cells [14]
  Metabolite Levels, Cells: 33.1 µM
  Metabolite Levels, Medium: 4.8 nM
CEM-r1 cells [15]; 1 μM [3H]bispom-PMEA, 15 min
  Levels in CEM-r1 cells relative to those seen in parental cells: about one third
CEM-r1 cells [15]; [17]
  Metabolite Levels, Cells: 13.3 µM
  Metabolite Levels, Medium: 23.2 nM
CEM-r1 cells [15]; medium, 1 μM [3H]bispom-PMEA, 15 min
  Levels of extracellular PMEA, CEM-r1 vs parental CEM-SS: ~5 fold
CaCo-2 cells
  Direction of transport in transwell culture: more rapidly transported from the apical to the basal side
CEM-SS cells [16]; Azide + Deoxyglucose
  Efflux kinetics, PMEA: >26 min
CEM-SS cells [16]; no treatment
  Efflux kinetics, PMEA: >26 min
CEM-SS cells [16]; parental CEM-SS cells
  Rate of efflux: 0.4 pmol/min/10^6 cells
CEM-SS cells [16]; parental CEM-SS cells, loaded with 1 μM [3H]bispom-PMEA, drug-free medium
  Time to half-maximal clearance of intracellular radioactivity: about 60 min
